Experiments:
Experiment in all cases: Bliss excess, mean over the matrix (fraction); higher = more synergy
[1] = tested on: PL4 (Pancreatic Carcinoma)
Summary of the method: (§1)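 Cell lines in DMEM/F12 or RPMI with 10% FBS were plated in 1536-well plates, held 24 hours at 37°C, 5% CO2, then given two-drug dose matrices for 72 hours (DMSO typically 0.2%). Viability was read by CellTiter-Glo 2.0 luminescence and scaled as inhibition from 0 (vehicle wells) to 1 (blank wells). Combination Emax is the second-highest inhibition in the matrix; Bliss excess is observed combination effect minus expected EA + EB − EA·EB, EA and EB being single-agent effects.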

[2] = tested on: T84 (Colorectal Carcinoma)
Summary of the method: as §1

[3] = tested on: NCI-H1876 (Small Cell Lung Carcinoma)
Summary of the method: as §1

[4] = tested on: MDA-MB-415 (Breast Carcinoma)
Summary of the method: as §1

[5] = tested on: HT-1080 (Other Solid Carcinomas)
Summary of the method: as §1

KALS-1 (Glioblastoma) = tested on: KALS-1 (Glioblastoma)
Summary of the method: as §1

[6] = tested on: MONO-MAC-6 (Acute Myeloid Leukemia)
Summary of the method: as §1

[7] = tested on: NCI-H3118 (Head and Neck Carcinoma)
Summary of the method: as §1

[8] = tested on: DBTRG-05MG (Glioblastoma)
Summary of the method: as §1

[9] = tested on: KP-4 (Pancreatic Carcinoma)
Summary of the method: as §1

[10] = tested on: OVCAR-3 (Ovarian Carcinoma)
Summary of the method: as §1

[11] = tested on: NCI-H1341 (Small Cell Lung Carcinoma)
Summary of the method: as §1

[12] = tested on: IA-LM (Non-Small Cell Lung Carcinoma)
Summary of the method: as §1

[13] = tested on: SK-CO-1 (Colorectal Carcinoma)
Summary of the method: as §1

[14] = tested on: C-33-A (Cervical Carcinoma)
Summary of the method: as §1

[15] = tested on: SAT (Head and Neck Carcinoma)
Summary of the method: as §1

[16] = tested on: SNU-423 (Hepatocellular Carcinoma)
Summary of the method: as §1

[17] = tested on: BHT-101 (Thyroid Gland Carcinoma)
Summary of the method: as §1

[18] = tested on: PA-TU-8988T (Pancreatic Carcinoma)
Summary of the method: as §1

WM35 (Melanoma) = tested on: WM35 (Melanoma)
Summary of the method: as §1

SMILES | Bliss excess [1] | Bliss excess [2] | Bliss excess [3] | Bliss excess [4] | Bliss excess [5] | Bliss excess (KALS-1 (Glioblastoma)) | Bliss excess [6] | Bliss excess [7] | Bliss excess [8] | Bliss excess [9] | Bliss excess [10] | Bliss excess [11] | Bliss excess [12] | Bliss excess [13] | Bliss excess [14] | Bliss excess [15] | Bliss excess [16] | Bliss excess [17] | Bliss excess [18] | Bliss excess (WM35 (Melanoma))
C=CCn1c(=O)c2cnc(Nc3ccc(N4CCN(C)CC4)cc3)nc2n1-c1cccc(C(C)(C)O)n1 [AZD1775] + C1CN(CCC1(C(=O)N[C@@H](CCO)C2=CC=C(C=C2)Cl)N)C3=NC=NC4=C3C=CN4 [Capivasertib] (first compound max 3 µM, partner max 3 µM) | -0.0549 | -0.0807 | -0.0304 | 0.0043 | -0.0086 | -0.0806 | 0.031 | -0.0253 | 0.005 | -0.0806 | -0.025 | -0.0538 | -0.0348 | -0.0603 | -0.0323 | -0.0616 | -0.0333 | 0.0304 | -0.0264 | 
CN(CCO)CC[C@H](CSc1ccccc1)Nc1ccc(S(=O)(=O)NC(=O)c2ccc(N3CCC([C@@H](O)c4ccccc4-c4ccc(Cl)cc4)CC3)cc2)cc1S(=O)(=O)C(F)(F)F [AZD4320] + C[C@@H]1COCCN1C2=NC(=NC(=C2)C3(CC3)[S@](=N)(=O)C)C4=C5C=CNC5=NC=C4 [AZD6738] (first compound max 1 µM, 7x7, partner max 10 µM) | -0.066 | -0.0344 | 0.0189 | -0.0749 | 0.0171 | -0.0784 | 0.0003 | 0.0076 | -0.0221 | -0.0444 | -0.0231 | -0.0017 | -0.0404 | -0.0858 | -0.0158 |  | -0.0359 | -0.0067 | -0.0006 | -0.0182
COc1nnc2ccc(N3CCC(c4ccc(OCCN5CCN(C)C(=O)[C@H]5C)cc4)CC3)nn12 [AZD5153] + CN(CC[C@H](CSC1=CC=CC=C1)NC2=C(C=C(C=C2)S(=O)(=O)NC(=O)C3=CC=C(C=C3)N4CCC(CC4)[C@H](C5=CC=CC=C5C6=CC=C(C=C6)Cl)O)S(=O)(=O)C(F)(F)F)CCO [AZD4320] (first compound max 1 µM, 7x7, partner max 1 µM) | 0.0732 |  | 0.134 |  | -0.0277 |  |  |  | -0.0517 |  | 0.0914 | 0.0454 |  |  |  | 0.0464 |  | 0.0367 | 0.048 | 0.0983
Cc1c2c(nn1C)CSCc1cc(n(C)n1)CSc1cc(c3ccccc3c1)OCCCc1c(C(=O)O)n(C)c3c-2c(Cl)ccc13 [AZD5991] + C[C@@H](Nc1cc(F)cc(F)c1)c1cc(C(=O)N(C)C)cc2c(=O)cc(N3CCOCC3)oc12 [AZD8186] (first compound max 1 µM, 7x7, partner max 3 µM) | 0.0356 |  | 0.0156 | 0.0416 | -0.0338 | 0.012 | 0.0143 | -0.0161 | 0.0008 | -0.0235 | 0.0423 | 0.0352 | -0.0274 | -0.0398 | -0.0463 | -0.0731 | -0.0326 | 0.0094 | 0.0295 | 0.0064
CC(=O)c1c(C)c2cnc(Nc3ccc(N4CCNCC4)cn3)nc2n(C2CCCC2)c1=O [Palbociclib] + CN(CC[C@H](CSC1=CC=CC=C1)NC2=C(C=C(C=C2)S(=O)(=O)NC(=O)C3=CC=C(C=C3)N4CCC(CC4)[C@H](C5=CC=CC=C5C6=CC=C(C=C6)Cl)O)S(=O)(=O)C(F)(F)F)CCO [AZD4320] (first compound max 10 µM, 7x7, partner max 1 µM) | -0.0826 |  | -0.0286 |  | -0.121 |  |  |  | -0.119 |  | -0.0429 | -0.008 |  |  |  | -0.0941 |  | 0.0064 | -0.0213 | -0.114
CCc1c2c(nc3ccc(O)cc13)-c1cc3c(c(=O)n1C2)COC(=O)[C@]3(O)CC [SN-38] + O=C(c1cc(Cc2n[nH]c(=O)c3ccccc23)ccc1F)N1CCN(C(=O)C2CC2)CC1 [Olaparib] (first compound max 0.3 µM, 7x7, partner max 10 µM) | 0.0386 | -0.0279 |  | 0.026 | 0.0978 | 0.069 | 0.141 | 0.106 | 0.0015 | 0.0777 | 0.0986 | 0.0698 | 0.053 | 0.0147 | 0.0577 | 0.0387 | -0.0025 |  | 0.023 | 0.0733
C[C@@H](c1ccc2nccn2c1)n1nnc2ncc(-c3cnn(C)c3)nc21 [Savolitinib] + CN(CC[C@H](CSC1=CC=CC=C1)NC2=C(C=C(C=C2)S(=O)(=O)NC(=O)C3=CC=C(C=C3)N4CCC(CC4)[C@H](C5=CC=CC=C5C6=CC=C(C=C6)Cl)O)S(=O)(=O)C(F)(F)F)CCO [AZD4320] (first compound max 1 µM, 7x7, partner max 1 µM) | -0.0801 |  | -0.0256 |  | -0.0522 |  |  |  | -0.0262 |  | -0.0388 | 0.0128 |  |  |  | -0.0345 |  | -0.0327 | -0.0581 | -0.051

Reference: the supplement of paper PMC11061612
